# Experiments:
# rat = assay: Acute toxicity LD50 in rat; format: in vivo
smiles,measurement,setting,value
O=C(O)/C=C/CO [hydroxycrotonic acid],LD50 (rat),rat,> 2000 mg/kg bw
same,Ames-Test,Ames-Test (mutagenicity),negative
